Source: US10865211B2 (ENANTA PHARMACEUTICALS, INC, priority 2018, dated 2020)

Assays:
[1] = Compound induced cellular toxicity in HepG2 cells (ATPlite); assay type: cell-based; conditions: human, three days, ATPlite 1 Step, concentration reducing total ATP levels by 50% relative to no drug controls
Description: At day 3, post seeding cells are treated with ATPlite 1 Step according to the manufacturer's instructions.

2.2.15 cells = test: Antiviral activity in 2.2.15 cells: reduction of viral product accumulation (qPCR, HBsAg/HBeAg ELISA); assay type: cell-based, HBV; conditions: Hepatitis B virus, 120 h, day 5 post treatment, concentration reducing viral product accumulation in cell lysates or supernatants by 50% relative to no drug controls
Summary of the method: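 HBV-producing 2.2.15 cells, 35,000/well, treated with 5-fold serial compound dilutions at 0.5% final DMSO for 5 days. Lysate HBV DNA by qPCR or supernatant HBsAg/HBeAg by ELISA; EC50 is 50% reduction versus no-drug control, binned A<0.1 μM, B 0.1-1 μM, C>1 μM.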

Row | SMILES | CC50 at 3 days [1] | EC50 (2.2.15 cells)
1 | CC(C)[C@@H]1Cc2c(oc3c(C#N)cccc23)-c2cc(=O)c(C(=O)O)cn21 [Example 78, (S)-11-cyano-6-isopropyl-2-oxo-6,7-dihydro-2H-benzofuro[2,3-a]quinolizine-3-carboxylic acid] | > 25 µM | < 0.1 µM
2 | CC(C)[C@@H]1Cc2c(oc3c(-c4cccs4)cccc23)-c2cc(=O)c(C(=O)O)cn21 [Example 79, (S)-6-isopropyl-2-oxo-11-(thiophen-2-yl)-6,7-dihydro-2H-benzofuro[2,3-a]quinolizine-3-carboxylic acid] | < 10 µM | < 0.1 µM
3 | CC(C)[C@@H]1Cc2c(oc3c(-c4ccsc4)cccc23)-c2cc(=O)c(C(=O)O)cn21 [Example 80, (S)-6-isopropyl-2-oxo-11-(thiophen-3-yl)-6,7-dihydro-2H-benzofuro[2,3-a]quinolizine-3-carboxylic acid] | < 10 µM | < 0.1 µM
4 | CC(C)[C@@H]1Cc2c(oc3c(-n4cccn4)cccc23)-c2cc(=O)c(C(=O)O)cn21 [Example 81, (S)-6-isopropyl-2-oxo-11-(1H-pyrazol-1-yl)-6,7-dihydro-2H-benzofuro[2,3-a]quinolizine-3-carboxylic acid] | > 25 µM | < 0.1 µM
5 | Cc1cccc2c3c(oc12)-c1cc(=O)c(C(=O)O)cn1[C@H](C(C)C)C3 [Example 82, (S)-6-isopropyl-11-methyl-2-oxo-6,7-dihydro-2H-benzofuro[2,3-a]quinolizine-3-carboxylic acid] | > 25 µM | < 0.1 µM
6 | CC(C)[C@@H]1Cc2c(oc3c(C4CC4)cccc23)-c2cc(=O)c(C(=O)O)cn21 [Example 83, (S)-11-cyclopropyl-6-isopropyl-2-oxo-6,7-dihydro-2H-benzofuro[2,3-a]quinolizine-3-carboxylic acid] | < 10 µM | < 0.1 µM
7 | CC(C)[C@@H]1Cc2c(oc3c(-c4cnco4)cccc23)-c2cc(=O)c(C(=O)O)cn21 [Example 84, (S)-6-isopropyl-11-(oxazol-5-yl)-2-oxo-6,7-dihydro-2H-benzofuro[2,3-a]quinolizine-3-carboxylic acid] | > 25 µM | < 0.1 µM
